Legend:
[1] = biological target: T1, cloned recombinant human HDAC-1 (Homo sapiens, UniProt Q13547); assay: Human HDAC-1 enzyme inhibition, Assay 1 ([3H]-acetylated histone substrate, scintillation counting); format: biochemical; details: Table 5F; read-out: Human HDAC-1 IC50
T1 construct: made in house; host or cells: Baculovirus insect cell expression system
Outline: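 Recombinant human HDAC-1 from baculovirus-infected insect cells, preincubated with compound 30 min at 4° C. before reaction. Released [3H]-acetic acid extracted with ethyl acetate and counted by scintillation. IC50 taken from dose-response curves as concentration giving half-maximal inhibition.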

HCT116 cells = assay: MTT assay; format: cell-based; details: Homo sapiens, HCT-116, 72 h, Table 5F; HCT116 cells, 72 hours
Outline: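 Cells plated one day before dosing, then exposed to compound 72 h at 37 °C, 5% CO2. MTT at 0.5 mg/ml final for 4 h, solubilized in DMF/SDS buffer pH 4.7; OD converted to cell number from a standard growth curve.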

[2] = test system: acetylated histone H-4 in T24 human bladder cancer cells; assay: Histone H4 acetylation in whole cells by immunoblots; format: cell-based; details: T-24, Table 5F, 16 h, read-out: H4 Ac (T24) EC50
Outline: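 T24 cells were treated with HDAC inhibitors for 16 h; […] total histone protein was resolved by SDS/PAGE and immunoblotted with polyclonal anti-acetylated H4 antibody. ECL detection, with signal quantified by densitometry.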

T1 sequence (Q13547 whole entry): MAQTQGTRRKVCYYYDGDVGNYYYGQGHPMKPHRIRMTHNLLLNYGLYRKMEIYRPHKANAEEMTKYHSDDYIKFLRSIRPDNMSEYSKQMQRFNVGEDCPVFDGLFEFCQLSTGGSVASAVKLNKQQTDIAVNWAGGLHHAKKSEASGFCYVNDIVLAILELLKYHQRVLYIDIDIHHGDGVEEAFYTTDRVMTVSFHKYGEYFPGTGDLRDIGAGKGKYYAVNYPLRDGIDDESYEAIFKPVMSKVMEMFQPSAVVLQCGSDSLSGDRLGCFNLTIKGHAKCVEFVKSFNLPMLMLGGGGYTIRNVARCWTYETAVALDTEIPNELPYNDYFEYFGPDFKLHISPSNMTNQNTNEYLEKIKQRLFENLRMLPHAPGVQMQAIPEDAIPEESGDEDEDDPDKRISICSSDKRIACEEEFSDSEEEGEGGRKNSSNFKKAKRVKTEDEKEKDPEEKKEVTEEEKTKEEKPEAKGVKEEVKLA

IC50 [1]	IC50 (HCT116 cells)	EC50 [2]	SMILES
3 µM	400 nM	1000 nM	CSc1ccc(NCc2ccc(C(=O)Nc3ccccc3N)cc2)cc1 [Cpd 437]
5 µM	600 nM	1000 nM	CSc1cccc(NCc2ccc(C(=O)Nc3ccccc3N)cc2)c1 [Cpd 438, N-(2-Amino-phenyl)-4-[(3-methylsulfanyl-phenylamino)-methyl]-benzamide]
3 µM	400 nM	1000 nM	COc1ccc(-c2cc(Cl)nc(NCc3ccc(C(=O)Nc4ccccc4N)cc3)n2)cc1OC [Cpd 439]
2 µM	800 nM	2000 nM	COc1cc(NCc2ccc(C(=O)Nc3ccccc3N)cc2)c(C(C)=O)cc1OC [Cpd 441, 4-[(2-Acetyl-4,5-dimethoxy-phenylamino)-methyl]-N-(2-amino-phenyl)-benzamide]
17 µM	400 nM	1000 nM	COc1ccc(Nc2ccnc(NCc3ccc(C(=O)Nc4ccccc4N)cc3)n2)cc1OC [Cpd 442, N-(2-Amino-phenyl)-4-{[4-(3,4-dimethoxy-phenylamino)-pyrimidin-2-ylamino]-methyl}-benzamide]

Second part, the compound before the results:

SMILES	IC50 [1]	IC50 (HCT116 cells)	EC50 [2]
Nc1ccccc1NC(=O)c1ccc(CNc2nc(Cl)cc(NCc3cccnc3)n2)cc1 [Cpd 420, N-(2-Amino-phenyl)-4-({4-chloro-6-[(pyridin-3-ylmethyl)-amino]-pyrimidin-2-ylamino]-methyl)-benzamide]	3 µM	700 nM	1000 nM
COc1ccc(NCc2ccc(C(=O)Nc3ccccc3N)cc2)cn1 [Cpd 421]	4 µM	600 nM	1000 nM
Nc1ccccc1NC(=O)c1ccc(CNc2ccc(OC(F)(F)F)cc2)cc1 [Cpd 422, N-(2-Amino-phenyl)-4-[(4-trifluoromethoxy-phenylamino)-methyl]-benzamide]	< 0.05 µM	900 nM	5000 nM
Nc1ccccc1NC(=O)c1ccc(CNc2cccc(OC(F)(F)F)c2)cc1 [Cpd 423, N-(2-Amino-phenyl)-4-[(3-trifluoromethoxy-phenylamino)-methyl]-benzamide]	0.5 µM	1000 nM	3000 nM
Nc1ccccc1NC(=O)c1ccc(NCc2cccc(OC(F)(F)F)c2)cc1 [Cpd 425, N-(2-Amino-phenyl)-4-(3-trifluoromethoxy-benzylamino)-benzamide]	2 µM	600 nM	5000 nM
Nc1ccccc1NC(=O)c1ccc(NCc2ccc(OC(F)(F)F)cc2)cc1 [Cpd 426, N-(2-Amino-phenyl)-4-(4-trifluoromethoxy-benzylamino)-benzamide]	2 µM	1000 nM	10000 nM
Nc1ccccc1NC(=O)c1ccc(CNc2ccc3c(c2)OCO3)cc1 [Cpd 428, N-(2-Amino-phenyl)-4-(benzo[1,3]dioxol-5-ylaminomethyl)-benzamide]	0.7 µM	700 nM	1000 nM
COc1ccccc1NCc1ccc(C(=O)Nc2ccccc2N)cc1 [Cpd 429, N-(2-Amino-phenyl)-4-[(2-methoxy-phenylamino)-methyl]-benzamide]	4 µM	900 nM	1000 nM
COc1cccc(NCc2ccc(C(=O)Nc3ccccc3N)cc2)c1 [Cpd 430, N-(2-Amino-phenyl)-4-[(3-methoxy-phenylamino)-methyl]-benzamide]	5 µM	700 nM	1000 nM
Nc1ccccc1NC(=O)c1ccc(CNc2nccc(N3CCOCC3)n2)cc1 [Cpd 435, N-(2-Amino-phenyl)-4-[(4-morpholin-4-yl-pyrimidin-2-ylamino)-methyl]-benzamide]	3 µM	600 nM	1000 nM
Nc1ccccc1NC(=O)c1ccc(CNCCc2c[nH]c3ccccc23)cc1 [Cpd 436]	5 µM	800 nM	5000 nM

Source: patent publication US7868204B2, “Inhibitors of histone deacetylase” (MethylGene Inc., priority 2001, dated 2011)
